Results reported in PubChem BioAssay (NCI).
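Method: 48-hour compound exposure of cells in 96-well plates, five concentrations, linear interpolation of endpoints. At the GI50, growth is halved. TGI: total growth inhibition.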

Columns and labels:
Assay in all cases: NCI anticancer screen, dose series, 48 h
SW-620 colon = system: SW-620 colon
A498 renal = system: A498 renal
COLO 205 colon = system: COLO 205 colon
HCC-2998 colon = system: HCC-2998 colon
NCI/ADR-RES ovarian = system: NCI/ADR-RES ovarian
OVCAR-3 ovarian = system: OVCAR-3 ovarian
HT29 colon = system: HT29 colon
SNB-19 CNS = system: SNB-19 CNS
NCI-H522 lung = system: NCI-H522 lung
SK-MEL-2 melanoma = system: SK-MEL-2 melanoma
MDA-MB-231 breast = system: MDA-MB-231 breast
HCT-15 colon = system: HCT-15 colon
KM12 colon = system: KM12 colon
M14 melanoma = system: M14 melanoma
NCI-H226 lung = system: NCI-H226 lung
OVCAR-8 ovarian = system: OVCAR-8 ovarian
UACC-62 melanoma = system: UACC-62 melanoma
SR leukemia = system: SR leukemia
MOLT-4 leukemia = system: MOLT-4 leukemia
HOP-62 NSCLC = system: HOP-62 NSCLC
IGROV1 ovarian = system: IGROV1 ovarian
HOP-92 NSCLC = system: HOP-92 NSCLC
786-0 renal = system: 786-0 renal
EKVX NSCLC = system: EKVX NSCLC
RPMI-8226 leukemia = system: RPMI-8226 leukemia
OVCAR-4 ovarian = system: OVCAR-4 ovarian
CCRF-CEM leukemia = system: CCRF-CEM leukemia
MCF7 breast = system: MCF7 breast
SF-295 CNS = system: SF-295 CNS
UACC-257 melanoma = system: UACC-257 melanoma
PC-3 prostate = system: PC-3 prostate
K-562 leukemia = system: K-562 leukemia
ACHN renal = system: ACHN renal
HCT-116 colon = system: HCT-116 colon
HL-60(TB) leukemia = system: HL-60(TB) leukemia
BT-549 breast = system: BT-549 breast
LOX IMVI melanoma = system: LOX IMVI melanoma
U251 CNS = system: U251 CNS
NCI-H23 lung = system: NCI-H23 lung
SK-MEL-28 melanoma = system: SK-MEL-28 melanoma
CAKI-1 renal = system: CAKI-1 renal
MALME-3M melanoma = system: MALME-3M melanoma
NCI-H460 lung = system: NCI-H460 lung
MDA-MB-435 = system: MDA-MB-435
DU-145 prostate = system: DU-145 prostate
HS 578T breast = system: HS 578T breast
OVCAR-5 ovarian = system: OVCAR-5 ovarian
SF-539 CNS = system: SF-539 CNS
SK-OV-3 ovarian = system: SK-OV-3 ovarian
T-47D breast = system: T-47D breast
SF-268 CNS = system: SF-268 CNS
SK-MEL-5 melanoma = system: SK-MEL-5 melanoma
SN12C renal = system: SN12C renal
RXF 393 renal = system: RXF 393 renal
TK-10 renal = system: TK-10 renal
UO-31 renal = system: UO-31 renal
SNB-75 CNS = system: SNB-75 CNS
A549 NSCLC = system: A549 NSCLC

Cc1cc(C)c(O)c(CNCCCNCc2cc(C)cc(C)c2O)c1
GI50 (SW-620 colon): 3.19 µM
TGI (SW-620 colon): 11 µM
GI50 (A498 renal): 1.71 µM
TGI (A498 renal): 9.24 µM
GI50 (COLO 205 colon): 1.89 µM
TGI (COLO 205 colon): 3.89 µM
GI50 (HCC-2998 colon): 1.45 µM
TGI (HCC-2998 colon): 2.82 µM
GI50 (NCI/ADR-RES ovarian): 2.17 µM
TGI (NCI/ADR-RES ovarian): 5.75 µM
GI50 (OVCAR-3 ovarian): 3.82 µM
TGI (OVCAR-3 ovarian): 15 µM
GI50 (HT29 colon): 3.02 µM
TGI (HT29 colon): 10.7 µM
GI50 (SNB-19 CNS): 3.88 µM
TGI (SNB-19 CNS): 15.1 µM
GI50 (NCI-H522 lung): 3.41 µM
TGI (NCI-H522 lung): 14.1 µM
GI50 (SK-MEL-2 melanoma): 2.15 µM
TGI (SK-MEL-2 melanoma): 4.5 µM
GI50 (MDA-MB-231 breast): 1.93 µM
TGI (MDA-MB-231 breast): 4.45 µM
GI50 (HCT-15 colon): 2.01 µM
TGI (HCT-15 colon): 4.66 µM
GI50 (KM12 colon): 2.58 µM
TGI (KM12 colon): 7.24 µM
GI50 (M14 melanoma): 1.8 µM
TGI (M14 melanoma): 3.55 µM
GI50 (NCI-H226 lung): 6.46 µM
TGI (NCI-H226 lung): 21.9 µM
GI50 (OVCAR-8 ovarian): 5.09 µM
TGI (OVCAR-8 ovarian): 20.3 µM
GI50 (UACC-62 melanoma): 1.89 µM
TGI (UACC-62 melanoma): 3.43 µM
GI50 (SR leukemia): 2.06 µM
TGI (SR leukemia): 6 µM
GI50 (MOLT-4 leukemia): 3.14 µM
TGI (MOLT-4 leukemia): 10.2 µM
GI50 (HOP-62 NSCLC): 6.68 µM
TGI (HOP-62 NSCLC): 21.8 µM
GI50 (IGROV1 ovarian): 4.52 µM
TGI (IGROV1 ovarian): 18.5 µM
GI50 (HOP-92 NSCLC): 1.94 µM
TGI (HOP-92 NSCLC): 7.23 µM
GI50 (786-0 renal): 4.69 µM
TGI (786-0 renal): 18.7 µM
GI50 (EKVX NSCLC): 5.04 µM
TGI (EKVX NSCLC): 20.2 µM
GI50 (RPMI-8226 leukemia): 3.03 µM
TGI (RPMI-8226 leukemia): 8.72 µM
GI50 (OVCAR-4 ovarian): 3.7 µM
TGI (OVCAR-4 ovarian): 16.1 µM
GI50 (CCRF-CEM leukemia): 3.82 µM
TGI (CCRF-CEM leukemia): 15.3 µM
GI50 (MCF7 breast): 1.67 µM
TGI (MCF7 breast): 3.36 µM
GI50 (SF-295 CNS): 1.87 µM
TGI (SF-295 CNS): 3.81 µM
GI50 (UACC-257 melanoma): 2.14 µM
TGI (UACC-257 melanoma): 4.08 µM
GI50 (PC-3 prostate): 6.69 µM
TGI (PC-3 prostate): 19.8 µM
GI50 (K-562 leukemia): 2.11 µM
TGI (K-562 leukemia): 4.89 µM
GI50 (ACHN renal): 3.55 µM
TGI (ACHN renal): 10.8 µM
GI50 (HCT-116 colon): 2.99 µM
TGI (HCT-116 colon): 9.49 µM
GI50 (HL-60(TB) leukemia): 2.33 µM
TGI (HL-60(TB) leukemia): 4.75 µM
GI50 (BT-549 breast): 10.9 µM
TGI (BT-549 breast): 24.5 µM
GI50 (LOX IMVI melanoma): 1.52 µM
TGI (LOX IMVI melanoma): 2.88 µM
GI50 (U251 CNS): 1.95 µM
TGI (U251 CNS): 3.89 µM
GI50 (NCI-H23 lung): 7.46 µM
TGI (NCI-H23 lung): 21.2 µM
GI50 (SK-MEL-28 melanoma): 1.65 µM
TGI (SK-MEL-28 melanoma): 3.19 µM
GI50 (CAKI-1 renal): 5.45 µM
TGI (CAKI-1 renal): 18.7 µM
GI50 (MALME-3M melanoma): 1.73 µM
TGI (MALME-3M melanoma): 3.29 µM
GI50 (NCI-H460 lung): 2.13 µM
TGI (NCI-H460 lung): 4.65 µM
GI50 (MDA-MB-435): 1.54 µM
TGI (MDA-MB-435): 2.93 µM
GI50 (DU-145 prostate): 5.19 µM
TGI (DU-145 prostate): 17.7 µM
GI50 (HS 578T breast): 2.05 µM
TGI (HS 578T breast): 5.03 µM
GI50 (OVCAR-5 ovarian): 4.23 µM
TGI (OVCAR-5 ovarian): 19.5 µM
GI50 (SF-539 CNS): 1.59 µM
TGI (SF-539 CNS): 3.11 µM
GI50 (SK-OV-3 ovarian): 3.62 µM
TGI (SK-OV-3 ovarian): 13.6 µM
GI50 (T-47D breast): 1.73 µM
TGI (T-47D breast): 4.29 µM
GI50 (SF-268 CNS): 5.97 µM
TGI (SF-268 CNS): 21.2 µM
GI50 (SK-MEL-5 melanoma): 1.57 µM
TGI (SK-MEL-5 melanoma): 2.93 µM
GI50 (SN12C renal): 5.23 µM
TGI (SN12C renal): 18.8 µM
GI50 (RXF 393 renal): 1.93 µM
TGI (RXF 393 renal): 4.24 µM
GI50 (TK-10 renal): 6.16 µM
TGI (TK-10 renal): 20.6 µM
GI50 (UO-31 renal): 2.22 µM
TGI (UO-31 renal): 12.1 µM
GI50 (SNB-75 CNS): 1.39 µM
TGI (SNB-75 CNS): 2.78 µM
GI50 (A549 NSCLC): 11 µM
TGI (A549 NSCLC): 24.6 µM
